# Test results: patent US8791132B2, “Compounds and methods for treatment of hypertension” (Medivation Technologies, Inc., priority 2011, dated 2014)
# Several values for one entry are separate records, joined by “and”; a condition that tells them apart may be missing. Identical values can stand only once.
# Legend:
# [1] = target: T1, human recombinant adrenergic α2B receptor (Homo sapiens, UniProt P18089); assay: Radioligand binding, adrenergic α2B ([3H]Rauwolscine); details: for Percentage inhibition of ligand binding, Adrenergic α2B (0.03 μM): compound at 0.03 μM; for Percentage inhibition of ligand binding, Adrenergic α2B (0.03 μM) / inhibition at 0.03 µM / inhibition at 0.1 µM: [3H]Rauwolscine, repeat datapoints each shown; for Ki: read-out: Ki α2B; for inhibition at 0.03 µM: read-out: Percentage inhibition of ligand binding, Adrenergic α2B (0.03 μM), compound at 0.03 μM; for inhibition at 0.1 µM: read-out: Percentage inhibition of ligand binding, Adrenergic α2B (0.1 μM), compound at 0.1 μM
# T1 construct: expressed in transfected cells; host or cells: CHO-K1
# T1 sequence (P18089 1-450): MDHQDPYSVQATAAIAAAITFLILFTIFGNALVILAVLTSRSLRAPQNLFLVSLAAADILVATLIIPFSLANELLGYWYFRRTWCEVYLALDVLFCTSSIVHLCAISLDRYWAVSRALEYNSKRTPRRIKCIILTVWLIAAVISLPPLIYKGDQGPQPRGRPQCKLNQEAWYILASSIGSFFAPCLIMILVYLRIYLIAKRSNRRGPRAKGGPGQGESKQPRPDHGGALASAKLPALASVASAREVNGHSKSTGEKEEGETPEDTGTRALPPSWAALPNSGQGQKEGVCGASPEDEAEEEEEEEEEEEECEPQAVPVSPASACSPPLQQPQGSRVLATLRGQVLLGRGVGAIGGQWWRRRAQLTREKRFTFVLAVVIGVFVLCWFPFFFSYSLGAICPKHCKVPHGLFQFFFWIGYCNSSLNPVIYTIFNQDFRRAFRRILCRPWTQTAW
# Method in brief: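 Receptor expressed in CHO-K1 cells, assayed in 50 mM Tris-HCl pH 7.4 with 12.5 mM MgCl2, 1 mM EDTA and 0.2% BSA. Compounds were incubated with 2.5 nM [3H]Rauwolscine for 60 min at 25° C; 10 μM Prazosin defined non-specific binding. Filter counting gave percent inhibition of specific binding.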
# [2] = target: T2, human recombinant adrenergic α2A receptor (Homo sapiens, UniProt P08913); assay: Radioligand binding, adrenergic α2A ([3H]MK-912); details: for Percentage inhibition of ligand binding, Adrenergic α2A (0.1 μM): compound at 0.1 μM; for inhibition at 0.03 µM: read-out: Percentage inhibition of ligand binding, Adrenergic α2A (0.03 μM), compound at 0.03 μM; for inhibition at 0.1 µM: read-out: Percentage inhibition of ligand binding, Adrenergic α2A (0.1 μM), compound at 0.1 μM
# T2 construct: expressed in transfected cells; host or cells: insect Sf9 cells
# T2 sequence (P08913 1-465): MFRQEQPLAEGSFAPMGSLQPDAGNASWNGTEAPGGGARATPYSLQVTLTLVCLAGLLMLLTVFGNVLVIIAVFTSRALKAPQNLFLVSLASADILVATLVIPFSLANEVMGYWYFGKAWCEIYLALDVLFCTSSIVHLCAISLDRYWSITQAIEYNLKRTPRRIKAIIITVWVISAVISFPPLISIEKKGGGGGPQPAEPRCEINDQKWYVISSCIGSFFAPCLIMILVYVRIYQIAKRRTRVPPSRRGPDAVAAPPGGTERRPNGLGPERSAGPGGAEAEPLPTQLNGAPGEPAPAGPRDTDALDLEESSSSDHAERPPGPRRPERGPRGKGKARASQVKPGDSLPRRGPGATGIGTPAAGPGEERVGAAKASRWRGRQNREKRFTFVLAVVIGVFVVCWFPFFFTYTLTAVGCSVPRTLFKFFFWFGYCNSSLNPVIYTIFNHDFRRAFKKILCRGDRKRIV
# Method in brief: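 Receptor expressed in insect Sf9 cells, assayed in 50 mM Tris-HCl pH 7.4 with 12.5 mM MgCl2 and 2 mM EDTA. Compounds incubated with 1 nM [3H]MK-912 for 60 min at 25 °C; nonspecific binding defined with 10 μM WB-4101. Filter-bound radioactivity counted; values are percent inhibition of specific binding.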
# [3] = target: T3, rat adrenergic α1B receptor (Rattus norvegicus, UniProt P15823); assay: Radioligand binding, adrenergic α1B ([3H]Prazosin); details: [3H]Prazosin, repeat datapoints each shown; for Percentage inhibition of ligand binding, Adrenergic α1B (0.1 μM): compound at 0.1 μM; for inhibition at 0.03 µM: read-out: Percentage inhibition of ligand binding, Adrenergic α1B (0.03 μM), compound at 0.03 μM; for inhibition at 0.1 µM: read-out: Percentage inhibition of ligand binding, Adrenergic α1B (0.1 μM), compound at 0.1 μM; for Percentage inhibition of ligand binding, Adrenergic α1B (0.03 μM): compound at 0.03 μM
# T3 construct: rat adrenergic α1B receptor obtained from Wistar Rat liver; from tissue; host or cells: Wistar rat liver
# T3 sequence (P15823 1-515): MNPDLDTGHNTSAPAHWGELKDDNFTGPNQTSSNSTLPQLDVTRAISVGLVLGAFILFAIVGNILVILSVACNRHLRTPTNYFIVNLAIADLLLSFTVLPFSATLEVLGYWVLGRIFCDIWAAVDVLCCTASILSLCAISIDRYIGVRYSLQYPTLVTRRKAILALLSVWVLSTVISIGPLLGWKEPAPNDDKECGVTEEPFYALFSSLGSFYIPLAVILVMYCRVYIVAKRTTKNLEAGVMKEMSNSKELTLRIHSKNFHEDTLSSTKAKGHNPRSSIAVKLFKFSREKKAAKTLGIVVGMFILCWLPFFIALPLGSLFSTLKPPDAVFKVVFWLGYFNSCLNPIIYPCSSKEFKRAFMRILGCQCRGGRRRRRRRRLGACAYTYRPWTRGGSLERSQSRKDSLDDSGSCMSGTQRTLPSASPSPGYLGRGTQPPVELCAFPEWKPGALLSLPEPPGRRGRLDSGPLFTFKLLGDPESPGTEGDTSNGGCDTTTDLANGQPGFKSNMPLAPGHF
# Method in brief: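 Filter binding with Wistar rat liver α1B preparation: test compound plus 0.25 nM [3H]prazosin, 1 h at 25° C in modified Tris-HCl buffer pH 7.4.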
# [4] = [3H]MK-912, repeat datapoints each shown
"Percentage inhibition of ligand binding, Adrenergic α2B (0.03 μM) [1]",Ki [1],inhibition at 0.03 µM [1],inhibition at 0.1 µM [1],Ki [2],"Percentage inhibition of ligand binding, Adrenergic α2A (0.1 μM) [2, 4]","inhibition at 0.03 µM [2, 4]","inhibition at 0.1 µM [2, 4]","Percentage inhibition of ligand binding, Adrenergic α1B (0.1 μM) [3]",inhibition at 0.03 µM [3],inhibition at 0.1 µM [3],SMILES,"Percentage inhibition of ligand binding, Adrenergic α1B (0.03 μM) [3]","Percentage inhibition of ligand binding, Adrenergic α2A (0.03 μM) ([2]; compound at 0.03 μM, [3H]MK-912, repeat datapoints each shown, 0.03 µM)"
42%,–,–,–,–,4%,–,–,60%,–,–,"Cc1ccc2c(c1)c1c(n2CC(O)c2ccncc2Cl)CCN(C)C1 (single isomer, unassigned) [135a]",–,–
68%,–,–,–,–,22%,–,–,30%,–,–,"Cc1ccc2c(c1)c1c(n2CC(O)c2ccncc2Cl)CCN(C)C1 (single isomer, unassigned) [135b]",–,–
34%,–,–,–,–,–,–,16%,54%,–,–,"Cc1cnc2c(c1)c1c(n2CC(O)c2ccc(F)cc2)CCN(C)C1 (single isomer, unassigned) [136a]",–,–
30%,–,–,–,–,6%,–,–,23%,–,–,"Cc1ccc(CCn2c3c(c4cc(Cl)cnc42)C2CCCN2CC3)cn1 (single isomer, unassigned) [137b]",–,–
101%,2.36 nM,88%,–,–,–,–,16%,–,–,17%,"Cc1ccc2c(c1)c1c(n2CC(O)c2ccc(C(N)=O)cc2)CCN(C)C1 (single isomer, unassigned) [139a, 4-[2-(2,8-dimethyl-1,2,3,4-tetrahydro-pyrido[4,3-b]indol-5-yl)-1-hydroxy-ethyl]-benzamide]",–,–
59%,–,–,–,–,6%,–,–,11%,–,–,"Cc1ccc2c(c1)c1c(n2CC(O)c2ccc(C(N)=O)cc2)CCN(C)C1 (single isomer, unassigned) [139b, 4-[2-(2,8-dimethyl-1,2,3,4-tetrahydro-pyrido[4,3-b]indol-5-yl)-1-hydroxy-ethyl]-benzamide]",–,–
76%,–,–,–,–,11%,–,–,59%,–,–,"Cc1ccc2c(c1)c1c(n2CC(O)c2ccc(C#N)nc2)CCN(C)C1 (single isomer, unassigned) [140a, 5-[2-(2,8-dimethyl-1,2,3,4-tetrahydro-pyrido[4,3-b]indol-5-yl)-1-hydroxy-ethyl]-pyridine-2-carbonitrile]",–,–
52%,–,–,–,–,3%,–,–,18%,–,–,"Cc1ccc2c(c1)c1c(n2CC(O)c2ccc(C#N)nc2)CCN(C)C1 (single isomer, unassigned) [140b, 5-[2-(2,8-dimethyl-1,2,3,4-tetrahydro-pyrido[4,3-b]indol-5-yl)-1-hydroxy-ethyl]-pyridine-2-carbonitrile]",–,–

# Continued, compound first:
SMILES,"Percentage inhibition of ligand binding, Adrenergic α2B (0.03 μM) [1]",Ki [1],inhibition at 0.03 µM [1],inhibition at 0.1 µM [1],Ki [2],"Percentage inhibition of ligand binding, Adrenergic α2A (0.1 μM) [2, 4]","inhibition at 0.03 µM [2, 4]","inhibition at 0.1 µM [2, 4]","Percentage inhibition of ligand binding, Adrenergic α1B (0.1 μM) [3]",inhibition at 0.03 µM [3],inhibition at 0.1 µM [3],"Percentage inhibition of ligand binding, Adrenergic α1B (0.03 μM) [3]","Percentage inhibition of ligand binding, Adrenergic α2A (0.03 μM) ([2]; compound at 0.03 μM, [3H]MK-912, repeat datapoints each shown, 0.03 µM)"
"Cc1ccc2c(c1)c1c(n2CC(C)(O)c2cccnc2)CNCC1 (single isomer, unassigned) [128a]",100%,0.97 nM,97%,104%,98.6 nM,34%,9%,31%,45%,14%,37%,–,–
"Cc1ccc2c(c1)c1c(n2CC(O)c2ccncc2)CCN2CCCC12 (single isomer, unassigned) [129c]",–,0.77 nM,100%,–,88.6 nM,–,–,–,96%,86%,94%,–,–
"Cc1ccc2c(c1)c1c(n2CC(OC(=O)C(C)(C)C)c2ccncc2)CCN(C)C1 (single isomer, unassigned) [130a]",104%,1.66 nM,100%,107%,6.91 nM,–,–,–,66% and 68%,–,–,32%,–
"Cc1ccc2c(c1)c1c(n2CC(OC(=O)C(C)(C)C)c2ccncc2)CCN(C)C1 (single isomer, unassigned) [130b]",–,2.52 nM,–,–,72.6 nM,31%,–,–,8% and 11%,–,–,2%,13%
"Cc1ccc2c(c1)c1c(n2CC(O)c2cnn(C)c2)CCN(C)C1 (single isomer, unassigned) [131b, 2-(1,2,3,4-tetrahydro-2,8-dimethylpyrido[4,3-b]indol-5-yl)-1-(1-methyl-1H-pyrazol-4-yl)ethanol]",63%,7.95 nM,53%,90%,–,–,–,11%,–,–,36%,–,–
"Cc1ccc2c(c1)c1c(n2CC(O)c2ccncc2C)CCN(C)C1 (single isomer, unassigned) [133b]",88%,2.42 nM,87%,94%,59.5 nM,39%,27%,34%,42%,16%,40%,–,–
"Cc1cnc2c(c1)c1c(n2CCc2cccnc2)CCN2CCCC12 (single isomer, unassigned) [134b, 9-methyl-6-(2-pyridin-3-yl-ethyl)-2,3,4,5,6,10c-hexahydro-1H-3a,6,7-triaza-cyclopenta[c]fluorene]",103%,0.43 nM,102%,–,102 nM,29%,–,23%,95%,78%,93%,–,–
